From the METLIN SMRT retention time set (Domingo-Almenara et al. 2019)

Assay: gradient 5% acetonitrile 3 min, to 50% in 2 min, to 85% in 15 min, held 3 min, 100 µL/min
Details: column: Zorbax Extend-C18 2.1 x 50 mm; eluents: water / acetonitrile, 0.1% formic acid
Method in brief: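 Each retention time is based on an adduct peak selected computationally and verified by manual inspection. Measurements used HPLC–quadrupole time-of-flight mass spectrometry in positive and negative ionization mode on mixtures of ~100 pure standards. Chromatography ran on a Zorbax Extend-C18 column (2.1 × 50 mm, 1.8 μm) at 100 μL/min with water and acetonitrile, each containing 0.1% formic acid, and dead and dwell volumes of 40 μL and 900 μL.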

CCNc1cc(N2CCC(CCC(=O)NCc3cc(F)ccc3F)CC2)ncn1
RP-LC retention time: 666 s

COc1cccc(C2CC(c3ccc(Br)cc3)=NC3(CCN(C(C)=O)CC3)N2)c1O (configuration not stated)
RP-LC retention time: 694 s

CN(C)C(=O)c1ccc2c(c1)N(CC(=O)NCCN1CCCCCC1)C(=O)C1CCCCN21 (configuration not stated)
RP-LC retention time: 615 s

COCCN1CCC(N2CCN(S(=O)(=O)c3ccc(OC)c(Cl)c3)CC2)C1=O (configuration not stated)
RP-LC retention time: 583 s

O=C(Cn1c(C(=O)c2cccc(F)c2)nc2ccccc21)NCC1CCCO1 (configuration not stated)
RP-LC retention time: 805 s

Cc1nc(-n2c(C)ccc2C)sc1C(=O)NC(C)C
RP-LC retention time: 954 s

CCc1ccccc1NC(=O)C1CCN(S(=O)(=O)c2ccc3c(c2)NC(=O)C(CC)O3)CC1 (configuration not stated)
RP-LC retention time: 893 s

O=C(c1ccco1)N1CCN(C(=O)C2CCN(c3ccc(N4CCCCC4)nn3)CC2)CC1
RP-LC retention time: 607 s

Cc1nc(-c2ccc(OC3CCN(C(=O)NC4CCCC4)C3)cc2)no1 (configuration not stated)
RP-LC retention time: 820 s

Cc1nc(NC(=O)c2ccc(Cl)cc2)nc2cc3c(cc12)OCO3
RP-LC retention time: 750 s

O=S(=O)(c1cc(F)ccc1F)N1CCN(Cc2cccc(F)c2)C2(CCOCC2)C1
RP-LC retention time: 886 s

O=C(CN1C(=O)C2CCCCN2c2ccc(S(=O)(=O)N3CCCC3)cc21)NCc1ccccn1 (configuration not stated)
RP-LC retention time: 654 s

CCOc1ccccc1NC(=O)Cn1c(=O)n(CC(N)=O)c(=O)c2oc3ccccc3c21
RP-LC retention time: 704 s

CN(C1CCOCC1)C1CCN(C(=O)c2ccc(Cl)cc2)CC1
RP-LC retention time: 589 s

OCC1CN(c2ncccn2)CC12CCN(Cc1ccc(Cl)cc1F)CC2 (configuration not stated)
RP-LC retention time: 590 s

O=C(Nc1ccccc1Cl)N1CCN(CCn2c(-c3ccncc3)nc3cccnc32)CC1
RP-LC retention time: 588 s

COc1cccc(-c2nnc(Cc3nc(-c4ccc(F)cc4)no3)o2)c1
RP-LC retention time: 1020 s

CCOc1ccc(N2CC(c3nc(-c4ccc(OC)cc4OC)no3)CC2=O)cc1 (configuration not stated)
RP-LC retention time: 902 s

CCCCOc1cccc(C(=O)N(Cc2ccc(Br)o2)C2CCS(=O)(=O)C2)c1 (configuration not stated)
RP-LC retention time: 1090 s

CCc1noc(-c2ccnc(-n3cnc(C(=O)NC4CCCCC4)c3)c2)n1
RP-LC retention time: 915 s

COc1ccc(C(=O)N2CCc3cc(-c4csc(C5CC5)n4)ccc32)cn1
RP-LC retention time: 1070 s

COc1ccc(CC(=O)Nc2cc(-c3cn4cccnc4n3)ccc2OC)cc1
RP-LC retention time: 675 s

O=C(NCCc1ccccn1)C1CC(=O)N(c2n[nH]c3cc(Br)ccc23)C1 (configuration not stated)
RP-LC retention time: 600 s

CCn1nccc1C(=O)N1CC(N(C2CCOCC2)S(C)(=O)=O)C1
RP-LC retention time: 624 s

Cc1oc(C2CCN(C(=O)Nc3ccc4c(c3)CCC4)CC2)nc1C(=O)N1CCCC1
RP-LC retention time: 861 s

CCn1c(=O)c2ccccc2n(Cc2nc(-c3cc(OC)cc(OC)c3)no2)c1=O
RP-LC retention time: 1000 s

COc1ccc(-n2c(=O)n(C)c(=O)c3cc(C(=O)NC(C)c4ccccc4)cnc32)cc1 (configuration not stated)
RP-LC retention time: 871 s

COC(=O)c1cc(S(=O)(=O)N2CCCC2C(=O)Nc2ccc(F)cc2)cn1C (configuration not stated)
RP-LC retention time: 830 s

Cc1ccc(CNC(=O)COc2cc(C)nc(N3CCN(c4ccccc4)CC3)n2)cc1
RP-LC retention time: 922 s

CCN(C(=O)C1CCCN(c2ncnc3c2nc2n3CCCCC2)C1)c1ccccc1C (configuration not stated)
RP-LC retention time: 890 s

Cc1cccc(N2CCN(C(=O)CCC3CCN(c4cc(NC5CC5)ncn4)CC3)CC2)c1
RP-LC retention time: 717 s

CCOc1ccc(-c2nn3c(CSc4ccccc4)nnc3s2)cc1OC
RP-LC retention time: 987 s

Clc1ccc(-c2nc(NC3CCCCCC3)c3ccccc3n2)cc1
RP-LC retention time: 1030 s

CCCN1C(=O)c2cc(S(=O)(=O)Nc3ccccc3Cl)ccc2Oc2cccnc21
RP-LC retention time: 1090 s

COc1cccc(S(=O)(=O)Nc2ccc(C(=O)Nc3ccncc3)cc2)c1
RP-LC retention time: 578 s

O=C(c1ccc2ccccc2n1)N1CCC(Oc2ccccc2)C1 (configuration not stated)
RP-LC retention time: 937 s

CCc1cccc(C)c1Nc1c(-c2ccc(OC)cc2)nc2cnccn12
RP-LC retention time: 873 s

CC1(C)CC(=O)c2cn(-c3ccc(Cl)cc3)c(=O)c(C(=O)NCCN3CCOCC3)c2C1
RP-LC retention time: 592 s

Cc1cc(C(F)F)n2nc(C(=O)Nc3ccc(F)cc3C)nc2n1
RP-LC retention time: 811 s

Cc1cc(CC(=O)N2CC(F)(F)C[C@H]2c2nc(C)no2)on1
RP-LC retention time: 732 s

COc1cccc(N2CCN(C(=O)C3CCN(c4nccnc4Sc4ccccc4)CC3)CC2)c1
RP-LC retention time: 1070 s

COc1ccc(NC(=O)C2CCCN(c3nnc4ccc(Cl)cn34)C2)cc1OC (configuration not stated)
RP-LC retention time: 701 s

CC(=O)Nc1nc(N2CCC(C(=O)NCc3cccnc3)CC2)sc1C(=O)N1CCCC1
RP-LC retention time: 581 s

CCOc1ccccc1CN1CCc2nc(N3CCN(c4ccccn4)CC3)ncc2C1
RP-LC retention time: 583 s

Cc1ccc(-n2c(=O)c3c(cc(C)n3C)n(CC(=O)Nc3cc(C)cc(C)c3)c2=O)cc1
RP-LC retention time: 844 s

COc1ccc(NC(=O)c2cnc3c(c2)c(=O)n(C)c(=O)n3-c2ccc(C)cc2)cc1OC
RP-LC retention time: 836 s

C=C1C(=O)OC2CC1C(OC(C)=O)C/C(C)=C/CC/C(C)=C\CCC2(C)O (configuration not stated)
RP-LC retention time: 917 s

COc1ccc(C2Cn3nnc(-c4nc(-c5ccc(F)c(Br)c5)no4)c3CO2)cc1 (configuration not stated)
RP-LC retention time: 1180 s

CC(C)NC(=O)c1ccc(OCC2CCCN(C(=O)C3CCCO3)C2)cc1 (configuration not stated)
RP-LC retention time: 688 s

CNC(=O)Nc1ccc(OC)c(NC(=O)NC(=O)c2cc(F)c(F)cc2Cl)c1
RP-LC retention time: 784 s

CCN(CC)S(=O)(=O)c1c(C)nn(C(=O)c2ccccc2OC)c1C
RP-LC retention time: 951 s

CCCCn1c(=O)c2ccccc2n(Cc2nc(-c3cccc(OCC)c3)no2)c1=O
RP-LC retention time: 1150 s

CC(C)CNC(=O)Cn1c(C(C)C)nc2ccccc21
RP-LC retention time: 601 s

O=c1ccc(-c2ccccc2)nn1CCc1nc(-c2ccc(Br)cc2)no1
RP-LC retention time: 1060 s

CCc1nc2cc(-c3noc(COc4ccc(Cl)cc4)n3)ccc2o1
RP-LC retention time: 1170 s

O=C(NC1CCCCC1)c1ccc2c(c1)CCN2C(=O)C1CC1
RP-LC retention time: 824 s

CC(=O)Nc1ccc(C(=O)NCc2ccc(Br)cc2)c(N2CCOCC2)c1
RP-LC retention time: 785 s

Cc1ccc(CNC(=O)CN2CCN(Cc3cccc(Cl)c3)C2=O)o1
RP-LC retention time: 810 s

Cc1cc(C)cc(Nc2c(C(=O)N3CCC(C)CC3)cnc3nc(C)ccc23)c1
RP-LC retention time: 693 s

CCc1nc(-c2cccc(-c3noc(CNS(=O)(=O)c4ccc(F)cc4)n3)c2)cs1
RP-LC retention time: 1060 s

CCCC(=O)Nc1ccc2c(c1)N(C(=O)c1cccs1)CCC2
RP-LC retention time: 801 s

CNC(=O)N1CCCC(c2cccc(C(=O)NCc3ccc(SC)cc3)c2)C1 (configuration not stated)
RP-LC retention time: 779 s

Cc1cc(N2CCN(C)CC2)nc2ccc(NC(=S)NCc3cccs3)cc12
RP-LC retention time: 576 s

COC(=O)c1c(NCCc2ccccc2)c2cccc(Cl)c2[nH]c1=O
RP-LC retention time: 825 s

COc1cc(OC)cc(-c2noc(-c3nnn(Cc4nc(-c5ccccc5OC)oc4C)c3C)n2)c1
RP-LC retention time: 1130 s

O=S(=O)(c1cccnc1)N1CCC2(CC1)NCCc1c2[nH]c2ccccc12
RP-LC retention time: 640 s

O=C(Nc1ccc2c(c1)OCCO2)N1CCC(N2CCN(Cc3ccc(F)cc3)C2=O)CC1
RP-LC retention time: 773 s

CCc1nc(OCC(=O)Nc2cc(OC)ccc2OC)c2ccccc2n1
RP-LC retention time: 821 s

Cc1ccc(-c2cn3c(CC(=O)NC4CCCCC4)csc3n2)cc1C
RP-LC retention time: 829 s

CC(C)n1c(N2CCN(C(=O)c3ccncc3)CC2)cc(=O)n(C(C)C)c1=O
RP-LC retention time: 601 s

Cc1cn2c(S(=O)(=O)N3CCCCC3)c(C(C)C)nc2s1
RP-LC retention time: 1020 s

Cc1ccc(-c2ccc(-n3nc(C)c(S(=O)(=O)Nc4ccccc4)c3C)nn2)cc1
RP-LC retention time: 1060 s

CCc1cc(-c2csc(S(=O)(=O)Nc3ccc(C)c(C)c3)c2)on1
RP-LC retention time: 1050 s

CCCCn1cc(S(=O)(=O)N2CCN(c3cccc(Cl)c3)CC2)c2cccnc21
RP-LC retention time: 1250 s

COc1cc(C(=O)N2CCC(C(=O)NCCc3cscn3)CC2)cc(OC)c1OC
RP-LC retention time: 631 s

CN1c2cc(F)ccc2C(=O)NC12CCN(C(=O)c1cccc(Cl)c1)CC2
RP-LC retention time: 800 s

Cc1ccc2c(=O)c(C(=O)N3CCCCC3)cn(CC(=O)Nc3ccccc3)c2n1
RP-LC retention time: 713 s

CC(C)CN1CCN(S(=O)(=O)c2ccc(-c3nnc(C4CCCC4)o3)o2)CC1
RP-LC retention time: 692 s

CCOC(=O)C1=C(C)NC2=C(C(=O)C(C(=O)OC)C(C)C2)C1c1cccc(Cl)c1 (configuration not stated)
RP-LC retention time: 965 s

COc1ccc2nc(CN3CCN(S(=O)(=O)N(C)C)CC3)[nH]c2c1
RP-LC retention time: 556 s

CSc1ccc(NC(=O)CCl)cc1
RP-LC retention time: 751 s

COc1ccc(Nc2nc(N3CCN(C)CC3)nc3c2C(=O)CC(C)(C)C3)cc1
RP-LC retention time: 706 s

O=C(NCCc1c[nH]c2ccccc12)c1ccc(N2CCCC2)c(S(=O)(=O)N2CCCC2)c1
RP-LC retention time: 979 s

CCN1CCN(CCCNC(=O)c2ccc(CS(=O)c3ccccc3Cl)o2)CC1 (configuration not stated)
RP-LC retention time: 567 s

Cc1ccc(CNC(=O)N2CCCC(C)(C(=O)NCc3ccccc3C)C2)cc1 (configuration not stated)
RP-LC retention time: 916 s

CCN(CC)C(=O)Cn1cc(C(=O)C(=O)N(C)Cc2ccccc2)c2ccccc21
RP-LC retention time: 890 s

Cc1cc(NC(=O)C2CCN(C(=O)c3cc(-c4ccco4)on3)CC2)no1
RP-LC retention time: 712 s
